Experimental data taken from patent publication US20080025997A1, “Cysteine-rich region of respiratory syncytial virus and methods of use therefor” (priority 2004, published 2008).

Assays:
[1] = tested on: purified human monocytes; test: Monocyte cytokine production upon exposure to RSV and recombinant RSV viruses
Experimental: (§1) Human PBMC were isolated from leukopaks using Histopaque (Sigma, St. Louis, Mo.). Monocytes were isolated using the Monocyte Isolation Kit II (positive selection for CD3, CD7, CD16, CD19, CD56, CD123, and glycophorin A, MiltenyiBiotec) with Macs LS separation columns. Remaining cells were >90% monocytes by anti-CD14 staining and forward- and side-light scatter analysis using FACScan (Becton-Dickinson, Elmhust, Ill.).
(§2) Purified monocytes were stimulated with LPS (1 μg) or purified proteins F or Glycoprotein (3 μg; kindly provided by V. Randolph, Wyeth Lederle, N.Y.). All rRSV variants were grown in Hep-2 cells and Vero cells as described^29,30, and used at 10^5 pfu multiplicity of infection (MOI)=1] for stimulations. Lysate of Hep-2 cells and Vero cells were used as control stimuli. UV-inactivation was performed as described elsewhere19^5 and lack of virus replication confirmed in cell culture. […] An additional peptide encoding the conserved 13 amino acid region upstream of the GCRR (164-176)^3 was also used in add-back experiments. […] The GCRR and control peptides included biotin-SGSG at the amino termini. The anti-CX3CR1 antibody was kindly provided by P. Murphy, NIAID, NIH and used as described^18. […] Cytokines were measured in supernatant fluids 18 hours after stimulation by immunoassay following manufacturer's instructions (Biosource Europe S. A, Belgium).

[2] = tested on: NF-κB; test: NF-κB nuclear translocation immunoassay in human monocytes; assay type: cell-based; conditions: 60 min; purified protein or live virus stimulation
Experimental: Human monocytes were stimulated with purified RSV F and/or Glycoprotein (1 μg each) or indicated viruses for 60 minutes. After stimulation nuclear extracts were obtained using a hypotonic lysis buffer (10 mM HEPES (pH 7.9), 1.5 mM MgCl2, 10 mM KCl, 0.5 mM DTT, 0.1% Triton X-100 and protease inhibitors) and an extraction buffer (20 mM HEPES (pH 7.9), 1.5 mM MgCl2, 0.42 M NaCl, 0.5 mM DTT, 0.2 mM EDTA, 1.0% Igepal CA-630, 25% (v/v) glycerol and protease inhibitors). NF-κB subunits p50 and p65 were detected by a modified immunoassay using a double stranded biotinylated oligonucleotide containing the consensus sequence for NF-κB binding (5′-GGGACTTTCC-3′) [SEQ ID NO:______] (Chemicon International, Germany).

[3] = tested on: murine alveolar macrophages; test: Cytokine production by murine alveolar macrophages incubated with purified proteins and recombinant viruses; assay type: cell-based; conditions: macrophages from naive mice
Experimental: Alveolar macrophages were obtained by bronchoalveolar lavage (BAL) followed by magentic bead depletion (Militenyi Biotec, Germany). Macrophages were incubated with brefeldin A for six hours, fixed with commercially available fixation and permeabilization reagents, CYTOFIX/CYTOPERM (Becton Dickinson, Elmhust, Ill.), and stained using phycoerythrin (PE)-conjugated anti-IL-6 antibody (Becton Dickinson). Data was analyzed using side and forward scatter plots and FACScan (Becton Dickinson).

[4] = tested on: RSV; conditions: Glycoprotein added to F protein during immunization; cited from earlier work
[5] = tested on: TLR2; test: PGN-stimulated cytokine production by human monocytes; conditions: co-incubation
Experimental: as §1, §2

[6] = tested on: TLR9; test: CpGDNA-stimulated cytokine production by human monocytes; conditions: co-incubation
Experimental: as §1, §2

[7] = tested on: purified human monocytes; test: F protein-mediated cytokine production by purified human monocytes; conditions: for effect on F-induced IL-6 production: added to F-treated monocytes
Experimental: as §1
(§3) Purified monocytes were stimulated with LPS (1 μg) or purified proteins F or Glycoprotein (3 μg; kindly provided by V. Randolph, Wyeth Lederle, N.Y.). All rRSV variants were grown in Hep-2 cells and Vero cells as described^29,30, and used at 10^5 pfu multiplicity of infection (MOI)=1] for stimulations. Lysate of Hep-2 cells and Vero cells were used as control stimuli. UV-inactivation was performed as described elsewhere19^5 and lack of virus replication confirmed in cell culture. […] An additional peptide encoding the conserved 13 amino acid region upstream of the GCRR (164-176)^3 was also used in add-back experiments. […] The GCRR and control peptides included biotin-SGSG at the amino termini. The anti-CX3CR1 antibody was kindly provided by P. Murphy, NIAID, NIH and used as described^18. For supplemental experiments, we used peptidoglycan (PGN; Fluka, Sigma) at 10 μg and CpGDNA (GTCGTT; HyCult Biotechnology) at 1 mM. Cytokines were measured in supernatant fluids 18 hours after stimulation by immunoassay following manufacturer's instructions (Biosource Europe S. A, Belgium).

[8] = tested on: TLR4; test: Endotoxin (LPS)-mediated cytokine production by human monocytes; conditions: for effect on LPS-induced cytokine production (IL-6, IL-1β): added to LPS-treated monocytes
Experimental: as §1, §3

G^164-176: Glycoprotein peptide encompassing amino acids 164-176, conserved 13 amino acid segment upstream of the GCRR
modulation of IL-6 production by ΔG ([1]; peptide added with ΔG): failed to modulate IL-6 production

Glycoprotein: purified RSV attachment Glycoprotein from subgroup A (A2 strain)
NF-κB nuclear translocation [2]: decreased | cytokine production in murine alveolar macrophages [3]: modulating the innate responses elicited by both purified F and RSV | decrease in production of interferon-γ upon RSV challenge vs immunization with F alone [4]: up to 70 fold | cytokine production elicited by TLR2 agonist PGN [5]: inhibited | cytokine production elicited by TLR9 agonist CpGDNA [6]: inhibited | decrease in IL-6 production compared to monocytes incubated with F alone ([7]; F + Glycoprotein, P<0.01): approximately 1.5 log | effect on F-induced IL-1β or IL-10 in supernatant fluids ([7]; not shown): inhibitory effect similar to that observed for Glycoprotein on F-induced IL-6 production | IL-6 production by monocytes incubated with purified protein alone ([7]; supernatant fluids, 18 hours, immunoassay): low | IL-6 response of mG-infected cells after add-back to culture media ([1]; added to mG-infected monocytes): restored to levels similar to those elicited by RSV

GlycoproteinA peptide (residues 273-288): control peptide within the Glycoprotein mucin-like domain [reference compound]
effect on F-induced IL-6 production [7]: inhibitory effect was not observed

HFEVFNFVPCSICSNNPTCWAICKRI [GCRR peptide]
effect on IL-10 production of monocytes incubated with LPS [8]: affected production of IL-10 | effect on LPS-induced cytokine production (IL-6, IL-1β) [8]: dose-dependent inhibition of cytokine production | effect on F-induced IL-6 production [7]: dose-dependent inhibition

HFEVFNFVPSSISSNNPTSWAISKRI [GSRR, reference compound]
effect on LPS-induced cytokine production (IL-6, IL-1β) [8]: no effect

YFARGPGIHIRKR [HIV V3 loop control peptide, reference compound]
effect on LPS-induced cytokine production (IL-6, IL-1β) [8]: no effect | effect on F-induced IL-6 production [7]: inhibitory effect was not observed

bovine serum albumin [reference compound]
effect on F-induced IL-6 production [7]: no effect
